This is an account of results in the supplement of paper PMC10307832.

Assay in all cases: relative viability (nuclei count vs DMSO), 5 days (fraction); higher = more cells survive
Compound in the assay “MK-8033 + Bortezomib”: Cn1cc(-c2cnc3ccc4ccc(CS(=O)(=O)NCc5ccccn5)cc4c(=O)c3c2)cn1 [MK-8033] + CC(C)C[C@H](NC(=O)[C@H](Cc1ccccc1)NC(=O)c1cnccn1)B(O)O [Bortezomib] (partner 0.002 µM)
A digest of the protocol: (§1)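 After 5 days of treatment, lung cancer cells in 1536-well plates were fixed and stained in a single step (final 0.05% Triton X-100, 1% formaldehyde, 1 ug/ml Hoechst) and their nuclei counted on 4× images. Treatment had been applied by pin tool the day after seeding as one drug alone or as a fixed anchor-drug dose with five library-drug doses (not always all listed) in √10 steps. Relative viability is the nuclei count of treated wells divided by that of vehicle wells, and values are medians of duplicate plates.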

Compound in the assay “RU-SKI 43 + Crizotinib”: CC[C@@H](C)CNCC(=O)N1CCC2=C([C@@H]1COC3=CC=CC(=C3)C)C=CS2 [RU-SKI 43] + C[C@@H](Oc1cc(-c2cnn(C3CCNCC3)c2)cnc1N)c1c(Cl)ccc(F)c1Cl [Crizotinib] (partner 1 µM)
A digest of the protocol:
as §1

Compound in the assay “RU-SKI 43 + Phenformin”: CC[C@@H](C)CNCC(=O)N1CCC2=C([C@@H]1COC3=CC=CC(=C3)C)C=CS2 [RU-SKI 43] + N=C(N)NC(=N)NCCc1ccccc1 [Phenformin] (partner 250 µM)
A digest of the protocol:
as §1

Compound in the assay “Irinotecan + Dasatinib”: CCc1c2c(nc3ccc(OC(=O)N4CCC(N5CCCCC5)CC4)cc13)-c1cc3c(c(=O)n1C2)COC(=O)[C@]3(O)CC [Irinotecan] + Cc1nc(Nc2ncc(C(=O)Nc3c(C)cccc3Cl)s2)cc(N2CCN(CCO)CC2)n1 [Dasatinib] (partner 0.075 µM)
A digest of the protocol:
as §1

NCI-H2405: the relative viability amounted to 1 with MK-8033 + Bortezomib (first compound 0.02 µM); 0.961 with MK-8033 + Bortezomib (first compound 0.06325 µM); 0.932 with MK-8033 + Bortezomib (first compound 0.2 µM); 0.771 with MK-8033 + Bortezomib (first compound 0.6325 µM); 1.03 in the assay with MK-8033 + Bortezomib (first compound 2 µM); 0.863 in the assay with RU-SKI 43 + Crizotinib (first compound 0.1 µM). The relative viability with RU-SKI 43 + Crizotinib (first compound 0.3162 µM) amounted to 0.933; with RU-SKI 43 + Crizotinib (first compound 1 µM), 0.811; with RU-SKI 43 + Crizotinib (first compound 3.162 µM), 0.852; with RU-SKI 43 + Crizotinib (first compound 10 µM), 0.807; with RU-SKI 43 + Phenformin (first compound 0.1 µM), 0.37; in the assay with RU-SKI 43 + Phenformin (first compound 0.3162 µM), 0.371. In addition, the relative viability in the assay with RU-SKI 43 + Phenformin (first compound 1 µM) worked out at 0.413; with RU-SKI 43 + Phenformin (first compound 3.162 µM), 0.379; with RU-SKI 43 + Phenformin (first compound 10 µM), 0.358; in the assay with Irinotecan + Dasatinib (first compound 2 µM), 0.218; with Irinotecan + Dasatinib (first compound 6.325 µM), 0.198; with Irinotecan + Dasatinib (first compound 20 µM) it was 0.18.

As for NCI-H3122, the relative viability was 1.08 with MK-8033 + Bortezomib (first compound 0.02 µM); 1.01 with MK-8033 + Bortezomib (first compound 0.06325 µM); 0.982 with MK-8033 + Bortezomib (first compound 0.2 µM); 0.999 with MK-8033 + Bortezomib (first compound 0.6325 µM); 0.941 with MK-8033 + Bortezomib (first compound 2 µM); 0.256 with RU-SKI 43 + Crizotinib (first compound 0.1 µM). Besides, the relative viability came out at 0.257 in the assay with RU-SKI 43 + Crizotinib (first compound 0.3162 µM); 0.249 with RU-SKI 43 + Crizotinib (first compound 1 µM); 0.287 with RU-SKI 43 + Crizotinib (first compound 3.162 µM); 0.244 with RU-SKI 43 + Crizotinib (first compound 10 µM); 0.394 in the assay with RU-SKI 43 + Phenformin (first compound 0.1 µM); 0.376 with RU-SKI 43 + Phenformin (first compound 0.3162 µM). In addition, the relative viability with RU-SKI 43 + Phenformin (first compound 1 µM) was found to be 0.411; with RU-SKI 43 + Phenformin (first compound 3.162 µM) it was 0.379; with RU-SKI 43 + Phenformin (first compound 10 µM) it was 0.37; in the assay with Irinotecan + Dasatinib (first compound 0.6325 µM), 0.142; with Irinotecan + Dasatinib (first compound 2 µM), 0.619; in the assay with Irinotecan + Dasatinib (first compound 6.325 µM) it was 0.149. The relative viability with Irinotecan + Dasatinib (first compound 20 µM) was 0.117.

For PC-3 [JPC-3], the relative viability was 0.813 in the assay with MK-8033 + Bortezomib (first compound 0.02 µM); 0.778 with MK-8033 + Bortezomib (first compound 0.2 µM); 0.848 in the assay with MK-8033 + Bortezomib (first compound 0.6325 µM); 0.943 with MK-8033 + Bortezomib (first compound 2 µM); 0.918 in the assay with RU-SKI 43 + Crizotinib (first compound 0.1 µM); 1.14 in the assay with RU-SKI 43 + Crizotinib (first compound 0.3162 µM). For the same cell line, the relative viability with RU-SKI 43 + Crizotinib (first compound 1 µM) came to 0.998; with RU-SKI 43 + Crizotinib (first compound 3.162 µM), 0.922; in the assay with RU-SKI 43 + Crizotinib (first compound 10 µM), 0.963; with RU-SKI 43 + Phenformin (first compound 0.1 µM) it was 0.466; in the assay with RU-SKI 43 + Phenformin (first compound 0.3162 µM), 0.484; with RU-SKI 43 + Phenformin (first compound 1 µM) it was 0.457. Further, the relative viability is 0.52 with RU-SKI 43 + Phenformin (first compound 3.162 µM); 0.511 with RU-SKI 43 + Phenformin (first compound 10 µM); 0.882 with Irinotecan + Dasatinib (first compound 0.6325 µM); 0.915 with Irinotecan + Dasatinib (first compound 2 µM); 0.693 with Irinotecan + Dasatinib (first compound 6.325 µM); 0.345 with Irinotecan + Dasatinib (first compound 20 µM).

For the cell line PC-14, the relative viability came to 0.898 with MK-8033 + Bortezomib (first compound 0.02 µM); 0.742 in the assay with MK-8033 + Bortezomib (first compound 0.06325 µM); 0.816 with MK-8033 + Bortezomib (first compound 0.2 µM); 0.809 with MK-8033 + Bortezomib (first compound 0.6325 µM); 0.772 with MK-8033 + Bortezomib (first compound 2 µM); 0.827 with RU-SKI 43 + Crizotinib (first compound 0.1 µM). In addition, the relative viability with RU-SKI 43 + Crizotinib (first compound 0.3162 µM) is 0.891; with RU-SKI 43 + Crizotinib (first compound 1 µM), 0.92; with RU-SKI 43 + Crizotinib (first compound 3.162 µM) it was 0.804; in the assay with RU-SKI 43 + Crizotinib (first compound 10 µM), 0.749; in the assay with RU-SKI 43 + Phenformin (first compound 0.1 µM), 0.646; with RU-SKI 43 + Phenformin (first compound 0.3162 µM), 0.468. The relative viability with RU-SKI 43 + Phenformin (first compound 1 µM) worked out at 0.841; in the assay with RU-SKI 43 + Phenformin (first compound 3.162 µM) it was 0.457; in the assay with RU-SKI 43 + Phenformin (first compound 10 µM) it was 0.651; in the assay with Irinotecan + Dasatinib (first compound 0.6325 µM) it was 0.273; in the assay with Irinotecan + Dasatinib (first compound 2 µM), 0.244; in the assay with Irinotecan + Dasatinib (first compound 6.325 µM), 0.127. The relative viability with Irinotecan + Dasatinib (first compound 20 µM) is 0.088.

Take RERF-LC-KJ: the relative viability with MK-8033 + Bortezomib (first compound 0.02 µM) was 1.08; in the assay with MK-8033 + Bortezomib (first compound 0.06325 µM) it was 1.21; with MK-8033 + Bortezomib (first compound 0.2 µM), 1.04; in the assay with MK-8033 + Bortezomib (first compound 0.6325 µM) it was 1.19; with MK-8033 + Bortezomib (first compound 2 µM), 1.03; in the assay with RU-SKI 43 + Crizotinib (first compound 0.1 µM), 0.904. The relative viability with RU-SKI 43 + Crizotinib (first compound 0.3162 µM) was 0.86; with RU-SKI 43 + Crizotinib (first compound 1 µM), 0.772; in the assay with RU-SKI 43 + Crizotinib (first compound 3.162 µM) it was 0.862; with RU-SKI 43 + Crizotinib (first compound 10 µM) it was 0.77; with RU-SKI 43 + Phenformin (first compound 0.1 µM), 0.374; in the assay with RU-SKI 43 + Phenformin (first compound 0.3162 µM), 0.418. In addition, the relative viability in the assay with RU-SKI 43 + Phenformin (first compound 1 µM) turned out to be 0.347; with RU-SKI 43 + Phenformin (first compound 3.162 µM), 0.417; with RU-SKI 43 + Phenformin (first compound 10 µM), 0.346; with Irinotecan + Dasatinib (first compound 0.6325 µM), 0.805; in the assay with Irinotecan + Dasatinib (first compound 2 µM), 0.725; in the assay with Irinotecan + Dasatinib (first compound 6.325 µM), 0.449. In addition, the relative viability with Irinotecan + Dasatinib (first compound 20 µM) was found to be 0.158.

On to SK-LU-1, for which the relative viability with MK-8033 + Bortezomib (first compound 0.02 µM) was found to be 1.31; with MK-8033 + Bortezomib (first compound 0.06325 µM), 0.955; with MK-8033 + Bortezomib (first compound 0.2 µM), 1.32; with MK-8033 + Bortezomib (first compound 0.6325 µM) it was 0.883; in the assay with MK-8033 + Bortezomib (first compound 2 µM), 1.18; with RU-SKI 43 + Crizotinib (first compound 0.1 µM), 0.799. Besides, the relative viability in the assay with RU-SKI 43 + Crizotinib (first compound 0.3162 µM) worked out at 1.02; in the assay with RU-SKI 43 + Crizotinib (first compound 1 µM), 0.969; with RU-SKI 43 + Crizotinib (first compound 3.162 µM) it was 0.971; with RU-SKI 43 + Crizotinib (first compound 10 µM), 0.898; in the assay with RU-SKI 43 + Phenformin (first compound 0.1 µM), 0.531; in the assay with RU-SKI 43 + Phenformin (first compound 0.3162 µM), 0.689. The relative viability with RU-SKI 43 + Phenformin (first compound 1 µM) was 0.555; with RU-SKI 43 + Phenformin (first compound 3.162 µM) it was 0.715; in the assay with RU-SKI 43 + Phenformin (first compound 10 µM), 0.502; with Irinotecan + Dasatinib (first compound 0.6325 µM), 0.188; with Irinotecan + Dasatinib (first compound 2 µM), 0.19; with Irinotecan + Dasatinib (first compound 6.325 µM), 0.207. The relative viability in the assay with Irinotecan + Dasatinib (first compound 20 µM) came out at 0.173.

On to SW 1573, for which the relative viability with MK-8033 + Bortezomib (first compound 0.02 µM) came out at 1.08; with MK-8033 + Bortezomib (first compound 0.2 µM) it was 0.902; in the assay with MK-8033 + Bortezomib (first compound 0.6325 µM), 0.988; with MK-8033 + Bortezomib (first compound 2 µM), 1.05; with RU-SKI 43 + Crizotinib (first compound 0.1 µM) it was 1; with RU-SKI 43 + Crizotinib (first compound 0.3162 µM), 0.767. The relative viability with RU-SKI 43 + Crizotinib (first compound 1 µM) amounted to 0.799; with RU-SKI 43 + Crizotinib (first compound 3.162 µM), 0.768; with RU-SKI 43 + Crizotinib (first compound 10 µM), 0.723; with RU-SKI 43 + Phenformin (first compound 0.1 µM), 0.432; in the assay with RU-SKI 43 + Phenformin (first compound 0.3162 µM) it was 0.35; with RU-SKI 43 + Phenformin (first compound 1 µM), 0.42. The relative viability in the assay with RU-SKI 43 + Phenformin (first compound 3.162 µM) was 0.381; in the assay with RU-SKI 43 + Phenformin (first compound 10 µM) it was 0.31; with Irinotecan + Dasatinib (first compound 0.6325 µM), 0.317; with Irinotecan + Dasatinib (first compound 2 µM) it was 0.544; in the assay with Irinotecan + Dasatinib (first compound 6.325 µM) it was 0.161; in the assay with Irinotecan + Dasatinib (first compound 20 µM) it was 0.108.
